Measured values from patent publication US9765069B2, “Antimicrobial compounds” (OXFORD UNIVERSITY INNOVATION LIMITED, priority 2012, dated 2017).
In brackets after ≈: the same amount, converted by molar mass.

Key:
E. Coli RNAP = E. Coli RNAP (Escherichia coli, UniProt P0A8T7+P0A8V2); test: In vitro activity against E. Coli RNAP; assay type: biochemical
Excerpt: (§1) These properties can be determined according to techniques that are well known in the art.

[1] = aqueous solubility at pH 7.4; assay type: physicochemical; conditions: aqueous solubility at pH 7.4 (water with 2% DMSO)
Excerpt: as §1

S. aureus membrane = test: In vitro activity in depolarization of S. aureus membrane; assay type: cell-based; conditions: read-out: DEP (IC50)
Excerpt: as §1

[2] = test system: human peripheral blood cells; test: in vitro toxicities human peripheral blood cells; assay type: cell-based; conditions: human peripheral blood cells
Excerpt: as §1

[3] = test system: human embryonic kidney 293 cells; test: in vitro toxicities against human embryonic kidney 293 cells; assay type: cell-based; conditions: human embryonic kidney 293 cells
Excerpt: as §1

[4] = test system: mammalian_red blood cell membrane; test: In vitro mammalian red blood cell membrane lysis activity; assay type: cell-based; conditions: Active or inactive at 100 μM
Excerpt: as §1

S1 = test: MIC determination (bacteria), strain S1; assay type: cell-based, S. aureus; conditions: Table 1; 2-fold broth dilution
Experimental: (§2) MIC determination (bacteria); MICs were determined based on Clinical and Laboratory Standards Institute (CLSI) methodology (Methods for dilution antimicrobial susceptibility tests for bacteria that grow aerobically; Approved Standard—seventh edition. 2006, M7-A7, CLSI, Wayne Pa.) by a 2-fold broth dilution technique in Mueller Hinton (pH7.4 Biorad). For S. pneumoniae, the medium was supplemented with 2.5% laked horse blood. For H. influenzae, the medium was haemophilus test medium (H.T.M.). Overnight cultures were diluted to obtain the final inoculum of 10^5 cfu/well. Incubation was 37° C. overnight in ambient air. The MIC was defined as the lowest concentration which inhibited all visual growth and expressed in μg/ml. For each bacterial species, all of the molecules were tested in the same experiment in order to give a head-to-head comparison.

P9B = test: MIC determination (bacteria), strain P9B; assay type: cell-based, S. pneumoniae; conditions: Table 1; 2-fold broth dilution
Experimental: as §2

P1 = test: MIC determination (bacteria), strain P1; assay type: cell-based, S. pneumoniae; conditions: Table 1; 2-fold broth dilution
Experimental: as §2

E1 = test: MIC determination (bacteria), strain E1; assay type: cell-based, enterococcus; conditions: Table 1; 2-fold broth dilution
Experimental: as §2

[5] = test system: S2 (S. aureus 2, MRSA in vivo); test: MIC determination (bacteria), strain S2; assay type: cell-based; conditions: Table 1; 2-fold broth dilution
Experimental: as §2

H3 = test: MIC determination (bacteria), strain H3; assay type: cell-based, H. influenzae; conditions: Table 1; haemophilus test medium
Experimental: as §2

S4 = test: MIC determination (bacteria), strain S4; assay type: cell-based, S. aureus; conditions: Table 1; 2-fold broth dilution
Experimental: as §2

P9 = test: MIC determination (bacteria), strain P9; assay type: cell-based, S. pneumoniae; conditions: Table 1; 2-fold broth dilution
Experimental: as §2

E2 = test: MIC determination (bacteria), strain E2; assay type: cell-based, enterococcus; conditions: Table 1; 2-fold broth dilution
Experimental: as §2

H4 = test: MIC determination (bacteria), strain H4; assay type: cell-based, H. influenzae; conditions: Table 1; haemophilus test medium
Experimental: as §2

S26 = test: MIC determination (bacteria), strain S26; assay type: cell-based, S. aureus; conditions: Table 1; 2-fold broth dilution
Experimental: as §2

Sequence of E. Coli RNAP (P0A8V2 whole entry): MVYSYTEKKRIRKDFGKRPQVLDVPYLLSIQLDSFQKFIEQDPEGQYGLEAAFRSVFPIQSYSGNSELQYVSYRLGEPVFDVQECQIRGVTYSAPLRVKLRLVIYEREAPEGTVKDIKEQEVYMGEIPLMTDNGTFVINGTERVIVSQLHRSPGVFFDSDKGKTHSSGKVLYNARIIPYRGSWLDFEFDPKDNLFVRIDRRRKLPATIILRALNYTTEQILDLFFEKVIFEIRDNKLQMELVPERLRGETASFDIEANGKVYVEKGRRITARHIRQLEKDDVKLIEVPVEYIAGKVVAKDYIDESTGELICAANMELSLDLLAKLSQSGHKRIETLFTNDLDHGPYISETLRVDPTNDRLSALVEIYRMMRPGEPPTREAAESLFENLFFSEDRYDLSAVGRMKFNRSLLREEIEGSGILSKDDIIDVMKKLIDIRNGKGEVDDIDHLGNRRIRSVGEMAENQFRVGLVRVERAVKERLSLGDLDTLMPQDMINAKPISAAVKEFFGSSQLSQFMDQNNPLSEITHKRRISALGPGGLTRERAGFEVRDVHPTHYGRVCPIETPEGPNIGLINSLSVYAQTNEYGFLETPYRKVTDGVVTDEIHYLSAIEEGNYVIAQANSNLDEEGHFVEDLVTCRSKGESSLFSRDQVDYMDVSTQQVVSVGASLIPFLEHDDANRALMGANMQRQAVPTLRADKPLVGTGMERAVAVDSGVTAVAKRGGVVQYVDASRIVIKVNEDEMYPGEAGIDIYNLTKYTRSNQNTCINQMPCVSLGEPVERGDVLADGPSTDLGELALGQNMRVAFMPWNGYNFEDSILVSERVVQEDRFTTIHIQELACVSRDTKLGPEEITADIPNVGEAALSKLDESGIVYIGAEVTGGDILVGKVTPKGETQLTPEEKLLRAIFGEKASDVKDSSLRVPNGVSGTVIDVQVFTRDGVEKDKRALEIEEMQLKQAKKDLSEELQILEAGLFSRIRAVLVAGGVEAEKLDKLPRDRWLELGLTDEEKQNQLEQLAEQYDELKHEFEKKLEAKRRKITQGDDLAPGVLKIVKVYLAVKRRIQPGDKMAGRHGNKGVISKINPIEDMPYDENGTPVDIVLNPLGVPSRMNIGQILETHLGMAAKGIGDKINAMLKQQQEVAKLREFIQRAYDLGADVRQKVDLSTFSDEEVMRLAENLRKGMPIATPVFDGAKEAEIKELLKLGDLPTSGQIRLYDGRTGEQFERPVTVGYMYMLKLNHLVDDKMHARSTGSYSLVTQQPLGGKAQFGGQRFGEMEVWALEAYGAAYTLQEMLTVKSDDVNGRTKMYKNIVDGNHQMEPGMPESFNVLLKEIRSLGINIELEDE
Sequence of E. Coli RNAP (P0A8T7 whole entry): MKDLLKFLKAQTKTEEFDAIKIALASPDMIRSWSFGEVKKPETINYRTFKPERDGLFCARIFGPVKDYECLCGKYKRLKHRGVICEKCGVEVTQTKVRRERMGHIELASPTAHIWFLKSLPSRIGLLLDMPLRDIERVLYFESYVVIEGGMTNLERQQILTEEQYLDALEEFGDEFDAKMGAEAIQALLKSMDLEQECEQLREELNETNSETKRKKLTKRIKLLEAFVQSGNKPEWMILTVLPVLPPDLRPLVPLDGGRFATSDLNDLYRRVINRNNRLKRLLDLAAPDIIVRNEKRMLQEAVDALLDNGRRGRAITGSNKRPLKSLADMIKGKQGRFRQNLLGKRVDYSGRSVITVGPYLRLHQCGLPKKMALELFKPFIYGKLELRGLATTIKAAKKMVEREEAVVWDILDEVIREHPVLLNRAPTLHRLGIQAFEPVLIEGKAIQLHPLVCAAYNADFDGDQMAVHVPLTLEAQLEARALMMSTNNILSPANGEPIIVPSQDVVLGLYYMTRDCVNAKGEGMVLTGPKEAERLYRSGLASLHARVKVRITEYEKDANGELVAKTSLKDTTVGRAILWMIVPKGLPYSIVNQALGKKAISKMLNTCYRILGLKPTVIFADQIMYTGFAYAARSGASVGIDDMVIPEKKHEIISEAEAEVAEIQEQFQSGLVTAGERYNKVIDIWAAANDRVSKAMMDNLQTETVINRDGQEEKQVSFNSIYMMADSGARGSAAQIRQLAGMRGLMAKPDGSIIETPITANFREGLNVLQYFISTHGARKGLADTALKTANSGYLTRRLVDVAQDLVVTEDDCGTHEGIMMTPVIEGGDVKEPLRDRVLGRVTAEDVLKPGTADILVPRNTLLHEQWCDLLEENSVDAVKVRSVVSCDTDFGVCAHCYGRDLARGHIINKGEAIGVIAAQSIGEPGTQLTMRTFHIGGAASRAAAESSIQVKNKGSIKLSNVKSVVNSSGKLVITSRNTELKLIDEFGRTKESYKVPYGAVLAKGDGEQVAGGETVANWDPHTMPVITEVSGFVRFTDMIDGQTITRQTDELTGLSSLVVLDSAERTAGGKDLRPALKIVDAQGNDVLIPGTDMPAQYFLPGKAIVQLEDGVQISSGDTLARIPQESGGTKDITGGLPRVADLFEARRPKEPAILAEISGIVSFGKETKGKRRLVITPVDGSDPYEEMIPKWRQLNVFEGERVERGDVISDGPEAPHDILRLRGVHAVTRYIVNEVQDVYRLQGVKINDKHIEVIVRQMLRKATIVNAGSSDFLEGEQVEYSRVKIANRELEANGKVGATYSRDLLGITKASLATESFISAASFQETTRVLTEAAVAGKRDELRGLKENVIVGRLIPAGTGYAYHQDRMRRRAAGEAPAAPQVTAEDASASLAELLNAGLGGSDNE
Sequence of E. Coli RNAP (P0A7Z4 whole entry partner): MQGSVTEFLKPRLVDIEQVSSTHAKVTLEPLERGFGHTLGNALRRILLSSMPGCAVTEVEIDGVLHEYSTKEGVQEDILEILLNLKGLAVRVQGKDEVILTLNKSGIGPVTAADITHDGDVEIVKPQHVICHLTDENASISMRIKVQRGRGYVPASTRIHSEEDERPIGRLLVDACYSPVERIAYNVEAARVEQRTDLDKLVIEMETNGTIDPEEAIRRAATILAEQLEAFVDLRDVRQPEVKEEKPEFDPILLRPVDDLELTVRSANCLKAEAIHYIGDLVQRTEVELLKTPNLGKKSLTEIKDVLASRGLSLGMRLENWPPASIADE
Sequence of E. Coli RNAP (P0A800 whole entry partner): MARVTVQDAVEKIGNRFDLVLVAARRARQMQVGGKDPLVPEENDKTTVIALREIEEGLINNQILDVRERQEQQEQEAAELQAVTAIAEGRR

| Compound | IC50 (E. Coli RNAP) [µM] | SOL [1] [µM] | IC50 (S. aureus membrane) [µM] | PMBC (LD50, μM) [2] [µM] | Hek293 (LD50, μM) [3] [µM] | RBC membrane lysis activity (active/inactive) [4] | MIC S1 (S1) [µg/mL] | MIC P9B (P9B) [µg/mL] | MIC P1 (P1) [µg/mL] | MIC E1 (E1) [µg/mL] | MIC S2 [5] [µg/mL] | MIC H3 (H3) [µg/mL] | MIC S4 (S4) [µg/mL] | MIC P9 (P9) [µg/mL] | MIC E2 (E2) [µg/mL] | MIC H4 (H4) [µg/mL] | MIC S26 (S26) [µg/mL] | RBCL (IC50, μM) [4] |
| --- | --- | --- | --- | --- | --- | --- | --- | --- | --- | --- | --- | --- | --- | --- | --- | --- | --- | --- |
| CCCCCCCCCCCCC/C(O)=C1\C(=O)[C@@H]2CCCC(=O)N2C1=O [22b] | > 100 | 38 to 75 | > 100 | >90.9 | 90.9 | Active | – | – | – | – | – | – | – | – | – | – | – | – |
| CCCCCCCCCCCC(O)=C1C(=O)C(CCSC)N(C(C)=O)C1=O (stereo not shown) [24b] | 25 | >300 | – | 90.9 | 30.3 | – | 0.25 (≈ 0.629 µM) | 0.5 (≈ 1.26 µM) | <0.06 | <0.06 | 1 (≈ 2.52 µM) | 2 (≈ 5.03 µM) | 1 (≈ 2.52 µM) | <0.06 | <0.06 | 2 (≈ 5.03 µM) | 2 (≈ 5.03 µM) | – |
| CCCCCCCC(O)=C1C(=O)C(CCSC)N(C(=O)C2CCCCC2)C1=O (stereo not shown) [24e] | – | >300 | > 100 | >90.9 | >90.9 | Inactive^d | 0.5 (≈ 1.22 µM) | 1 (≈ 2.44 µM) | 0.12 (≈ 0.293 µM) | 0.25 (≈ 0.61 µM) | 0.5 (≈ 1.22 µM) | 16 (≈ 39.1 µM) | 2 (≈ 4.88 µM) | 0.12 (≈ 0.293 µM) | 0.5 (≈ 1.22 µM) | 2 (≈ 4.88 µM) | 1 (≈ 2.44 µM) | – |
| CCCCCC(O)=C1C(=O)C(CCSC)N(C(=O)CC(C)CC(C)(C)C)C1=O (stereo not shown) [24i] | 33 | >300 | > 100 | 30.3 | 10.1 | – | 0.25 (≈ 0.607 µM) | 2 (≈ 4.86 µM) | 0.25 (≈ 0.607 µM) | 0.5 (≈ 1.21 µM) | 0.5 (≈ 1.21 µM) | 8 (≈ 19.4 µM) | 0.5 (≈ 1.21 µM) | 0.25 (≈ 0.607 µM) | 0.25 (≈ 0.607 µM) | 2 (≈ 4.86 µM) | 1 (≈ 2.43 µM) | Active |
| CCCCCCCC(O)=C1C(=O)C(CCSC)N(C(=O)CC(C)CC(C)(C)C)C1=O (stereo not shown) [24j] | 19 | >300 | > 100 | 30.3 | 10.1 | Active | 0.5 (≈ 1.14 µM) | 4 (≈ 9.1 µM) | 0.12 (≈ 0.273 µM) | 0.25 (≈ 0.569 µM) | 0.5 (≈ 1.14 µM) | >64 | 0.5 (≈ 1.14 µM) | 0.12 (≈ 0.273 µM) | 0.25 (≈ 0.569 µM) | 2 (≈ 4.55 µM) | 1 (≈ 2.27 µM) | – |
| CCCCCCCCCC(O)=C1C(=O)C(CCSC)N(C(=O)CC(C)CC(C)(C)C)C1=O (stereo not shown) [24k] | – | >300 | 68.8 | 90.9 | 10.1 | Active | 0.5 (≈ 1.07 µM) | 2 (≈ 4.28 µM) | 0.25 (≈ 0.535 µM) | 0.5 (≈ 1.07 µM) | 0.5 (≈ 1.07 µM) | >64 | 0.5 (≈ 1.07 µM) | 0.12 (≈ 0.257 µM) | 0.25 (≈ 0.535 µM) | 64 (≈ 137 µM) | 1 (≈ 2.14 µM) | – |
| CCCCCCCCCC(O)=C1C(=O)C(CCSC)N(C(=O)Cc2cccs2)C1=O (stereo not shown) [24m] | – | >300 | > 100 | 90.9 | 30.3 | Active | 2 (≈ 4.43 µM) | 4 (≈ 8.86 µM) | 0.5 (≈ 1.11 µM) | 2 (≈ 4.43 µM) | 2 (≈ 4.43 µM) | 16 (≈ 35.4 µM) | 2 (≈ 4.43 µM) | 0.25 (≈ 0.554 µM) | 0.5 (≈ 1.11 µM) | 4 (≈ 8.86 µM) | 4 (≈ 8.86 µM) | – |
